Measurements as given in patent US6737383B1, “Herbicidal oxadiazolidines” (priority 1999, dated 2004).

What was measured:
[1] = test system: sugar beet; experiment: Test B pre/postemergence sugar beet; assay type: in vivo, Beta vulgaris; settings: for Plant response rating, Sugarbeets: Rate 250 g/ha
Outline: (§1)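 Response is a visual 0-to-10 score relative to untreated plants, where 0 means no effect and 10 means complete control, taken twelve to sixteen days after application. Treatments went onto soil at planting and onto foliage of 1- to 4-leaf plants, using a surfactant-containing non-phytotoxic solvent.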

[2] = test system: blackgrass; experiment: Test B pre/postemergence blackgrass; assay type: in vivo, Alopecurus myosuroides; settings: for Plant response rating, Blackgrass: Rate 250 g/ha
Outline: as §1

[3] = test system: bedstraw; experiment: Test B pre/postemergence bedstraw; assay type: in vivo, Galium aparine
Outline: as §1

[4] = test system: purple nutsedge; experiment: Test B pre/postemergence purple nutsedge; assay type: in vivo, Cyperus rotundus; settings: for Plant response rating, Nutsedge: Rate 250 g/ha
Outline: as §1

[5] = test system: morningglory; experiment: Test B pre/postemergence morningglory; assay type: in vivo, Ipomoea hederacea; settings: for Plant response rating, Morningglory: Rate 250 g/ha
Outline: as §1

[6] = test system: pigweed; experiment: Test B pre/postemergence pigweed; assay type: in vivo, Amaranthus retroflexus; settings: for Plant response rating, Redroot pigweed: Rate 250 g/ha
Outline: as §1

[7] = test system: rice; experiment: Test B flood test rice; assay type: in vivo, Oryza sativa
Outline: (§2)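 Plants were grown to the 2-leaf stage before treatment with test chemical, then held in a greenhouse for twelve to sixteen days. Injury was visually rated against untreated controls on a 0–10 scale, where 0 is no effect and 10 is complete control.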

[8] = test system: cocklebur; experiment: Test B pre/postemergence cocklebur; assay type: in vivo, Xanthium strumarium; settings: for Plant response rating, Cocklebur: Rate 250 g/ha
Outline: as §1

[9] = test system: wild oat; experiment: Test B pre/postemergence wild oat; assay type: in vivo, Avena fatua; settings: for Plant response rating, Wild oats: Rate 250 g/ha
Outline: as §1

[10] = test system: corn; experiment: Test B pre/postemergence corn; assay type: in vivo, Zea mays; settings: for Plant response rating, Corn: Rate 250 g/ha
Outline: as §1

[11] = test system: surinam grass; experiment: Test B pre/postemergence surinam grass; assay type: in vivo, Brachiaria decumbens; settings: for Plant response rating, B. signalgrass: Rate 250 g/ha
Outline: as §1

[12] = test system: smallflower flatsedge; experiment: Test B flood test smallflower flatsedge; assay type: in vivo, Cyperus difformis
Outline: as §2

[13] = test system: soybean; experiment: Test B pre/postemergence soybean; assay type: in vivo, Glycine max; settings: for Plant response rating, Soybean: Rate 250 g/ha
Outline: as §1

[14] = test system: bamyardgrass; experiment: Test B flood test barnyardgrass; assay type: in vivo, Echinochloa crus-galli
Outline: as §2

[15] = test system: rape; experiment: Test B pre/postemergence rape; assay type: in vivo, Brassica napus; settings: for Plant response rating, Rape: Rate 250 g/ha
Outline: as §1

[16] = test system: velvetleaf; experiment: Test B pre/postemergence velvetleaf; assay type: in vivo, Abutilon theophrasti; settings: for Plant response rating, Velvetleaf: Rate 250 g/ha
Outline: as §1

[17] = Postemergence, Rate 125 g/ha, scale of 0 to 10 where 0 is no effect and 10 is complete control
[18] = Preemergence, Rate 62 g/ha, scale 0 to 10 (0 no effect, 10 complete control)
[19] = Preemergence, Rate 125 g/ha, 0 is no effect, 10 is complete control
[20] = Preemergence, scale of 0 to 10 where 0 is no effect and 10 is complete control
[21] = Preemergence, Rate 500 g/ha, scale 0 to 10 (0 no effect, 10 complete control)
[22] = Rate 62 g/ha, Postemergence, scale of 0 to 10 where 0 is no effect and 10 is complete control
[23] = Postemergence, scale 0 to 10, 0 is no effect, 10 is complete control
[24] = Rate 500 g/ha, Postemergence, scale 0 to 10, 0 no effect, 10 complete control
[25] = Postemergence (flood test species), Rate 125 g/ha, scale of 0 to 10 where 0 is no effect and 10 is complete control
[26] = Rate 62 g/ha, Postemergence section, flood test species, scale of 0 to 10 where 0 is no effect and 10 is complete control
[27] = Rate 250 g/ha, Postemergence (flood test), scale 0 to 10, 0 is no effect, 10 is complete control
[28] = Rate 250 g/ha, headed Pre-emergence (flood test species), scale 0 to 10 (0 no effect, 10 complete control)
[29] = Rate 500 g/ha, headed Pre-emergence (flood test species), scale 0 to 10 (0 no effect, 10 complete control)
[30] = Rate 500 g/ha, listed under Postemergence (flood test species), scale 0 to 10, 0 no effect, 10 complete control
[31] = Rate 1000 g/ha, Pre-emergence (as headed), scale 0 to 10
[32] = Rate 2000 g/ha, Pre-emergence (as headed), scale 0 to 10
[33] = Postemergence, Rate 62 g/ha, scale 0 to 10, 0 is no effect, 10 is complete control

CC(C)N(C(=O)n1oc(=O)n(-c2cnn(C)c2Cl)c1=O)c1ccccc1 [Compound 122]
Sugarbeets plant response rating [1, 17]: 0
Sugarbeets plant response rating [1, 18]: 0
Sugarbeets plant response rating (0 to 10 scale) [1, 19]: 0
Plant response rating, Sugarbeets [1, 20]: 0
Sugarbeets plant response rating [1, 21]: 4
Sugarbeets plant response rating [1, 22]: 0
Plant response rating, Sugarbeets [1, 23]: 0
Sugarbeets plant response rating [1, 24]: 2
Blackgrass plant response rating [2, 17]: 0
Blackgrass plant response rating [2, 18]: 0
Blackgrass plant response rating (0 to 10 scale) [2, 19]: 0
Plant response rating, Blackgrass [2, 20]: 0
Blackgrass plant response rating [2, 21]: 3
Blackgrass plant response rating [2, 22]: 0
Plant response rating, Blackgrass [2, 23]: 4
Blackgrass plant response rating [2, 24]: 6
Bedstraw plant response rating [3, 18]: 0
Bedstraw plant response rating (0 to 10 scale) [3, 19]: 0
Plant response rating, Bedstraw ([3]; Preemergence, Rate 250 g/ha, scale of 0 to 10 where 0 is no effect and 10 is complete control): 0
Bedstraw plant response rating [3, 21]: 0
Bedstraw plant response rating [3, 24]: 3
Nutsedge plant response rating [4, 17]: 0
Nutsedge plant response rating [4, 18]: 0
Nutsedge plant response rating (0 to 10 scale) [4, 19]: 0
Plant response rating, Nutsedge [4, 20]: 0
Nutsedge plant response rating [4, 21]: 0
Nutsedge plant response rating [4, 22]: 0
Plant response rating, Nutsedge [4, 23]: 0
Nutsedge plant response rating [4, 24]: 0
Morningglory plant response rating [5, 17]: 3
Morningglory plant response rating [5, 18]: 0
Morningglory plant response rating (0 to 10 scale) [5, 19]: 0
Plant response rating, Morningglory [5, 20]: 0
Morningglory plant response rating [5, 21]: 0
Morningglory plant response rating [5, 22]: 1
Plant response rating, Morningglory [5, 23]: 4
Morningglory plant response rating [5, 24]: 4
Redroot pigweed plant response rating [6, 17]: 1
Redroot pigweed plant response rating [6, 18]: 0
Redroot pigweed plant response rating (0 to 10 scale) [6, 19]: 5
Plant response rating, Redroot pigweed [6, 20]: 8
Redroot pigweed plant response rating [6, 21]: 8
Redroot pigweed plant response rating [6, 22]: 0
Plant response rating, Redroot pigweed [6, 23]: 2
Redroot pigweed plant response rating [6, 24]: 5
Rice plant response rating [7, 25]: 0
Rice plant response rating [7, 26]: 0
Plant response rating, Rice [7, 27]: 0
Rice plant response rating [7, 28]: 0
Plant response rating, Rice [7, 29]: 0
Rice plant response rating [7, 30]: 0
Rice plant response rating [7, 31]: 0
Rice plant response rating [7, 32]: 0
Cocklebur plant response rating [8, 17]: 2
Cocklebur plant response rating [8, 18]: 0
Plant response rating, Cocklebur [8, 20]: 0
Cocklebur plant response rating [8, 22]: 0
Plant response rating, Cocklebur [8, 23]: 3
Cocklebur plant response rating [8, 24]: 3
Wild oats plant response rating [9, 17]: 0
Wild oats plant response rating [9, 18]: 0
Wild oats plant response rating (0 to 10 scale) [9, 19]: 0
Plant response rating, Wild oats [9, 20]: 3
Wild oats plant response rating [9, 21]: 5
Wild oats plant response rating [9, 22]: 0
Plant response rating, Wild oats [9, 23]: 0
Wild oats plant response rating [9, 24]: 0
Corn plant response rating [10, 17]: 0
Corn plant response rating [10, 18]: 0
Corn plant response rating (0 to 10 scale) [10, 19]: 0
Plant response rating, Corn [10, 20]: 0
Corn plant response rating [10, 21]: 0
Corn plant response rating [10, 22]: 0
Plant response rating, Corn [10, 23]: 0
Corn plant response rating [10, 24]: 0
B. signalgrass plant response rating [11, 33]: 0
B. signalgrass plant response rating [11, 17]: 0
B. signalgrass plant response rating [11, 18]: 0
B. signalgrass plant response rating (0 to 10 scale) [11, 19]: 0
Plant response rating, B. signalgrass [11, 20]: 0
B. signalgrass plant response rating [11, 21]: 5
Plant response rating, B. signalgrass [11, 23]: 0
B. signalgrass plant response rating ([11]; Rate 500 g/ha, Postemergence, scale of 0 to 10 where 0 is no effect and 10 is complete control): 0
S. Flatsedge plant response rating [12, 25]: 0
S. Flatsedge plant response rating ([12]; Pre-emergence, Rate 1000 g/ha, scale 0 to 10 (0 no effect, 10 complete control)): 0
S. Flatsedge plant response rating [12, 26]: 0
Plant response rating, S. Flatsedge [12, 27]: 0
S. Flatsedge plant response rating [12, 28]: 0
Plant response rating, S. Flatsedge [12, 29]: 0
S. Flatsedge plant response rating [12, 30]: 0
S. Flatsedge plant response rating [12, 32]: 0
Soybean plant response rating [13, 17]: 3
Soybean plant response rating [13, 18]: 0
Soybean plant response rating (0 to 10 scale) [13, 19]: 0
Plant response rating, Soybean [13, 20]: 0
Soybean plant response rating [13, 21]: 0
Soybean plant response rating [13, 22]: 3
Plant response rating, Soybean [13, 23]: 3
Soybean plant response rating [13, 24]: 5
Barnyardgrass plant response rating [14, 25]: 0
Barnyardgrass plant response rating [14, 33]: 0
Plant response rating, Barnyardgrass [14, 27]: 0
Barnyardgrass plant response rating [14, 28]: 0
Plant response rating, Barnyardgrass [14, 29]: 0
Barnyardgrass plant response rating [14, 30]: 0
Barnyardgrass plant response rating [14, 31]: 0
Barnyardgrass plant response rating ([14]; Rate 2000 g/ha, Pre-emergence (as headed), scale 0 to 10, 0 no effect, 10 complete control): 0
Rape plant response rating [15, 17]: 0
Rape plant response rating [15, 18]: 0
Rape plant response rating (0 to 10 scale) [15, 19]: 0
Plant response rating, Rape [15, 20]: 0
Rape plant response rating [15, 21]: 3
Rape plant response rating [15, 22]: 0
Plant response rating, Rape [15, 23]: 3
Rape plant response rating [15, 24]: 4
Velvetleaf plant response rating [16, 17]: 0
Velvetleaf plant response rating [16, 18]: 0
Velvetleaf plant response rating (0 to 10 scale) [16, 19]: 0
Plant response rating, Velvetleaf [16, 20]: 0
Velvetleaf plant response rating [16, 21]: 3
Velvetleaf plant response rating [16, 22]: 0
Plant response rating, Velvetleaf [16, 23]: 3
Velvetleaf plant response rating [16, 24]: 3
